Experimental data taken from patent publication US20240254087A1, “SELECTIVE, PARTIAL, AND ARRESTIN-BIASED 5-HT2A AGONISTS WITH UTILITY IN VARIOUS DISORDERS” (Saint Joseph's University, priority 2021, published 2024).

Columns and labels:
5-HT2A [1] = test: Ca2+ flux assay, 5-HT2A; format: cell-based, human; conditions: Gq/11 Ca2+ mobilization; higher number = skewed towards 5-HT2A
5-HT1A = target: T1, 5-HT1A (Homo sapiens, UniProt P08908); test: Competitive radioligand binding (NIMH PDSP)
T1 sequence (P08908 1-422): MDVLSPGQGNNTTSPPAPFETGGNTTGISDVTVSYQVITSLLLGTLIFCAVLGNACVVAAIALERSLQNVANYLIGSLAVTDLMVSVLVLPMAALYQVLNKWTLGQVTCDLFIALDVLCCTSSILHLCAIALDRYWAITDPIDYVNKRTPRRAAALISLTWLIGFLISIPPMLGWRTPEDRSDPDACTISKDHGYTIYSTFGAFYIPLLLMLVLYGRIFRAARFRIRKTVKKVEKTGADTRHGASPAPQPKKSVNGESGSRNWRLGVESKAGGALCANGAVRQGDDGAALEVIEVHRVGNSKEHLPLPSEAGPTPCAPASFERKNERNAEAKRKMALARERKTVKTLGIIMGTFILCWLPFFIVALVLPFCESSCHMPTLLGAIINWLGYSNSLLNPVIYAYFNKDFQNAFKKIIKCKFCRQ
Description: (§1) Method 1: Competitive binding experiments were performed by the National Institute of Mental Health Psychoactive Drug Screening Program (NIMH PDSP) using described methods or 5-HT2A experiments performed using [3H]-ketanserin displacement in human 5-HT2A expressing membranes. Target compounds were dissolved in DMSO and an initial screen performed to assess displacement of the radioligand from target receptors at a concentration of 10,000 nM. […] For the Ki experiments, compounds were always tested in triplicate on separate plates. Each plate also contained a known ligand for the receptor as a positive control.

5-HT1B = 5-HT1B (Homo sapiens, UniProt P28222); test: Competitive radioligand binding (NIMH PDSP)
Chain of 5-HT1B (P28222 whole entry, species assumed): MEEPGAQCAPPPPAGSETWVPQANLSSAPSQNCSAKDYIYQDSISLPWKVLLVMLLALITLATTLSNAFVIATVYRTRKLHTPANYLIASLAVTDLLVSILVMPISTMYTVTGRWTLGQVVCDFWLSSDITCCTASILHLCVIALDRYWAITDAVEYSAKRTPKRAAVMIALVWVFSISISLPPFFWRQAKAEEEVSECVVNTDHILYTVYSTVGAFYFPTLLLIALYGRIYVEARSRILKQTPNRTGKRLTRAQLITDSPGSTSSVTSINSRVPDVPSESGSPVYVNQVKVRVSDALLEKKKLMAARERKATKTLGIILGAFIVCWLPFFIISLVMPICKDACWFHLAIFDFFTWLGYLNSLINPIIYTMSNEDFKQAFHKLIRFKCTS
Description: as §1

5-HT1D = 5-HT1D (Homo sapiens, UniProt P28221); test: Competitive radioligand binding (NIMH PDSP)
Chain of 5-HT1D (P28221 whole entry, species assumed): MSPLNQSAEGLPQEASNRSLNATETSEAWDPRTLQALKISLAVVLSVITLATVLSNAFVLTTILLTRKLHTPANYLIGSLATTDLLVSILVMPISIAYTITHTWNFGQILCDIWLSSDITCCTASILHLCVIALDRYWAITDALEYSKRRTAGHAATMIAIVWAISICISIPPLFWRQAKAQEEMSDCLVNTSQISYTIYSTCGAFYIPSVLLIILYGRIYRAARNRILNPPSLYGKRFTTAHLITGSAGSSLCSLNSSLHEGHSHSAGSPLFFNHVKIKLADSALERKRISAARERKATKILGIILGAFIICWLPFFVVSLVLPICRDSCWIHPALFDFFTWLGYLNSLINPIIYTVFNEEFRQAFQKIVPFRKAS
Description: as §1

5-HT1e = 5-HT1e (Homo sapiens, UniProt P28566); test: Competitive radioligand binding (NIMH PDSP)
Chain of 5-HT1e (P28566 whole entry, species assumed): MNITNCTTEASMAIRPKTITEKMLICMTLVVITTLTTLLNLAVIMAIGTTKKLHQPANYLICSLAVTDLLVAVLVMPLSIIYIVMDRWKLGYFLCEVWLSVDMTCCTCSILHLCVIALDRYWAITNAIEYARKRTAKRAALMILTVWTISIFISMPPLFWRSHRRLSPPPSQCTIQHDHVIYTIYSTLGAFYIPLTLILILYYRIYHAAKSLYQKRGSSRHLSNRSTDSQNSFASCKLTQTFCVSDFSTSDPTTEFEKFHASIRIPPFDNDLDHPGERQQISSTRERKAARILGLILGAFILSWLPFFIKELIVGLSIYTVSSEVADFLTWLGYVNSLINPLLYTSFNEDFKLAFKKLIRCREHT
Description: as §1

5-HT2A [2] = target: T2, 5-HT2A (Homo sapiens, UniProt P28223); test: Competitive radioligand binding (NIMH PDSP)
T2 sequence (P28223 whole entry): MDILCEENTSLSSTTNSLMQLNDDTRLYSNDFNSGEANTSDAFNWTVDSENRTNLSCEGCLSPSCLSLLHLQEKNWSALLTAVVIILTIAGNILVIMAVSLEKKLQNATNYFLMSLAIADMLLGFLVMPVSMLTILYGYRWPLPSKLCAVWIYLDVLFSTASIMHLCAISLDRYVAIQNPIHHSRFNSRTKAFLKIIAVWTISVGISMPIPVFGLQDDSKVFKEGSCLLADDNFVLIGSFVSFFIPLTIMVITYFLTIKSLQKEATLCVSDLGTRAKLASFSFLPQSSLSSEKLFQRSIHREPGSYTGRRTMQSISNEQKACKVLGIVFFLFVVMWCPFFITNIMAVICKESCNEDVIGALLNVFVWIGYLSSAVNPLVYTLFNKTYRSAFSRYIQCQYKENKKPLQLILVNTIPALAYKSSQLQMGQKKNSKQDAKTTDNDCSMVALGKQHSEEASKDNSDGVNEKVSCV
Description: as §1

5-HT3 = target: T3, 5-HT3 (Homo sapiens, UniProt P46098); test: Competitive radioligand binding (NIMH PDSP)
T3 sequence (P46098 24-478): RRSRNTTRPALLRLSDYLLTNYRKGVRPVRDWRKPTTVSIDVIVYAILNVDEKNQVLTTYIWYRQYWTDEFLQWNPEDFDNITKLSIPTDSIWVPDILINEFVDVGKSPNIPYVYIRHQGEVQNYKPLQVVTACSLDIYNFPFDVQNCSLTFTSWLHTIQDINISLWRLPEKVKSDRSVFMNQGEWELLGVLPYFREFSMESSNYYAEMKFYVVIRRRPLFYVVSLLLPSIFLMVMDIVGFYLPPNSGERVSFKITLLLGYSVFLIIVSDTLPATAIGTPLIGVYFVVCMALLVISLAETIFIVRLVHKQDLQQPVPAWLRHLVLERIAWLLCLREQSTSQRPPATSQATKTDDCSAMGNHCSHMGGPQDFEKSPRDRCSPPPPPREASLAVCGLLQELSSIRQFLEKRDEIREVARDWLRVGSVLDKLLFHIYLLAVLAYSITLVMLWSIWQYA
Description: as §1

5-HT2A [3] = target: T2, 5-HT2A; test: Ca2+ flux assay, 5-HT2A; format: cell-based; set-up: expressed in transfected cells; conditions: for Emax: read-out: 5-HT2A Emax % 5-HT, Ca2+ flux
5-HT2B [4] = target: T4, 5-HT2B (Homo sapiens, UniProt P41595); test: Ca2+ flux assay, 5-HT2B; format: cell-based; set-up: expressed in transfected cells; conditions: for 5-HT2B EC50, nM / Emax: Ca2+ flux; for Emax: read-out: 5-HT2B Emax % 5-HT
T4 sequence (P41595 whole entry): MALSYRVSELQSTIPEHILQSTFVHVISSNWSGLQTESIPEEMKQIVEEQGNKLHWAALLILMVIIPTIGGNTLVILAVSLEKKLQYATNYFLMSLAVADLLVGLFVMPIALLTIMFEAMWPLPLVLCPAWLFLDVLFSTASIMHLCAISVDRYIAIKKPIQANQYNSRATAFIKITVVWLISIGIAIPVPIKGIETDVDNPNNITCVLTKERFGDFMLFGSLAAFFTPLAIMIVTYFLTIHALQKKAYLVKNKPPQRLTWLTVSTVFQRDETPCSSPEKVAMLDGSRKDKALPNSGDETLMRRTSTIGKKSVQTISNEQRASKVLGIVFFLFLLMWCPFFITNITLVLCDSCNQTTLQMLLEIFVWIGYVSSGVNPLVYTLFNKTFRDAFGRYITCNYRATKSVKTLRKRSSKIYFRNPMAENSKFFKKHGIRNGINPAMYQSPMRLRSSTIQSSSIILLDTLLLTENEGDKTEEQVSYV

5-HT2C [5] = target: T5, 5-HT2C (Homo sapiens, UniProt P28335); test: Ca2+ flux assay, 5-HT2C; format: cell-based; set-up: expressed in transfected cells; conditions: for EC50: 5-HT2C EC50, nM; for Emax: read-out: 5-HT2C Emax % 5-HT
T5 sequence (P28335 33-458): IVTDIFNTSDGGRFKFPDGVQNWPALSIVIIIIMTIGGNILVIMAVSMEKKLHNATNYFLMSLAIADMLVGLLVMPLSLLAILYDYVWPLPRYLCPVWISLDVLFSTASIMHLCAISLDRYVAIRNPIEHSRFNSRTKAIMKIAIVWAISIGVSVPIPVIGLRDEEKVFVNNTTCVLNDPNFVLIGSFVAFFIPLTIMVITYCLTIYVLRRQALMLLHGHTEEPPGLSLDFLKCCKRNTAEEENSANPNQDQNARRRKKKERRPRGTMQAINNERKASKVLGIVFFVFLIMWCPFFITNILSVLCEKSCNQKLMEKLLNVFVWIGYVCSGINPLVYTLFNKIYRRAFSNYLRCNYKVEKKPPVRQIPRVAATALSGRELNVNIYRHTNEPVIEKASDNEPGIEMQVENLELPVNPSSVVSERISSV

5-HT2B [6] = target: T4, 5-HT2B; test: Competitive radioligand binding (NIMH PDSP); set-up: expressed in transfected cells
Description: as §1

5-HT2C [7] = target: T5, 5-HT2C; test: Competitive radioligand binding (NIMH PDSP); set-up: expressed in transfected cells
Description: as §1

COc1cc([N+](=O)[O-])c(OC)cc1CCNCc1cccc(F)c1OC [25N-NB-2-MeO-3-F (19), [2-(2,5-dimethoxy-4-nitrophenyl)ethyl][(3-fluoro-2-methoxyphenyl)methyl]amine]
5-HT2A/5-HT2c Selectivity Factor ΔLog(Emax/EC50) (5-HT2A [1]): 33.8 | Ki (5-HT1A): 1000 nM | Ki (5-HT1B): > 10 µM | Ki (5-HT1D): > 10000 nM | Ki (5-HT1e): > 10 µM | Ki (5-HT2A [2]): 7.41 nM | Ki (5-HT3): > 10 µM | EC50 (5-HT2A [3]; 5-HT2A EC50, nM, Ca2+ flux): 2.35 nM | Emax (5-HT2A [3]): 83 ± 1% | 5-HT2B EC50, nM (5-HT2B [4]): No activity | Emax (5-HT2B [4]): < 10% | EC50 (5-HT2C [5]): 74.5 nM | Emax (5-HT2C [5]): 77 ± 2% | Ki (5-HT2B [6]): 25.1 nM | Ki (5-HT2C [7]): 40.7 nM

COc1cc([N+](=O)[O-])c(OC)cc1CCNCc1ccccc1[N+](=O)[O-] [25N-NBNO2 (15), [2-(2,5-dimethoxy-4-nitrophenyl)ethyl][(2-nitrophenyl)methyl]amine]
5-HT2A/5-HT2c Selectivity Factor ΔLog(Emax/EC50) (5-HT2A [1]): 66.8 | Ki (5-HT1A): 1950 nM | Ki (5-HT1B): > 10 µM | Ki (5-HT1D): > 10000 nM | Ki (5-HT1e): > 10 µM | Ki (5-HT2A [2]): 81.3 nM | Ki (5-HT3): > 10 µM | EC50 (5-HT2A [3]; 5-HT2A EC50, nM, Ca2+ flux): 15.6 nM | 5-HT2A Emax % 5-HT (5-HT2A [3]; Ca2+ flux): 64 ± 2 % 5-HT | Emax (5-HT2A [3]): ≤ 77% | 5-HT2B EC50, nM (5-HT2B [4]): No activity | Emax (5-HT2B [4]): < 10% | EC50 (5-HT2C [5]): 583 nM | Emax (5-HT2C [5]): 36 ± 2% | Ki (5-HT2B [6]): 191 nM | Ki (5-HT2C [7]): 282 nM

COc1cc([N+](=O)[O-])c(OC)cc1CCNCc1cccc(C)c1O [25N-NB-2-OH-3-Me (18), 2-({[2-(2,5-dimethoxy-4-nitrophenyl)ethyl]amino}methyl)-6-methylphenol]
5-HT2A/5-HT2c Selectivity Factor ΔLog(Emax/EC50) (5-HT2A [1]): 5-HT2A Selective | Ki (5-HT1A): 186 nM | Ki (5-HT1B): > 10 µM | Ki (5-HT1D): 1290 nM | Ki (5-HT1e): > 10 µM | Ki (5-HT2A [2]): 0.479 nM | Ki (5-HT3): > 10 µM | EC50 (5-HT2A [3]; 5-HT2A EC50, nM, Ca2+ flux): 1.58 nM | Emax (5-HT2A [3]): 55 ± 2% | 5-HT2B EC50, nM (5-HT2B [4]): No activity | Emax (5-HT2B [4]): < 10% | 5-HT2C EC50, nM (5-HT2C [5]): No activity | Emax (5-HT2C [5]): < 10% | Ki (5-HT2B [6]): 0.776 nM | Ki (5-HT2C [7]): 2.88 nM

COc1cc([N+](=O)[O-])c(OC)cc1CCNCc1cccc(C)c1 [25N-NB-3-Me (22), [2-(2,5-dimethoxy-4-nitrophenyl)ethyl][(3-methylphenyl)methyl]amine]
5-HT2A/5-HT2c Selectivity Factor ΔLog(Emax/EC50) (5-HT2A [1]): 29.1 | Ki (5-HT1A): 1780 nM | Ki (5-HT1B): > 10 µM | Ki (5-HT1D): 933 nM | Ki (5-HT1e): > 10 µM | Ki (5-HT2A [2]): 0.209 nM | Ki (5-HT3): > 10 µM | EC50 (5-HT2A [3]; 5-HT2A EC50, nM, Ca2+ flux): 2.27 nM | Emax (5-HT2A [3]): 54 ± 1% | 5-HT2B EC50, nM (5-HT2B [4]): No activity | Emax (5-HT2B [4]): < 10% | EC50 (5-HT2C [5]): 14.3 nM | Emax (5-HT2C [5]): 15 ± 2% | Ki (5-HT2B [6]): 2.88 nM | Ki (5-HT2C [7]): 39.8 nM

COc1cc([N+](=O)[O-])c(OC)cc1CCN [2C-N (1), 2-(2,5-dimethoxy-4-nitrophenyl)ethan-1-amine, reference compound]
5-HT2A/5-HT2c Selectivity Factor ΔLog(Emax/EC50) (5-HT2A [1]): 19.1 | Ki (5-HT1A): 1450 nM | Ki (5-HT1B): > 10 µM | Ki (5-HT1D): 832 nM | Ki (5-HT1e): 0.676 µM | Ki (5-HT2A [2]): 72.4 nM | Ki (5-HT3): > 10 µM | EC50 (5-HT2A [3]; 5-HT2A (pEC50 ± SEM), Ca2+ flux): 4.9 nM | EC50 (5-HT2A [3]; 5-HT2A EC50, nM, Ca2+ flux): 4.56 nM | Emax (5-HT2A [3]): 100 ± 1% | EC50 (5-HT2B [4]): 50.3 nM | Emax (5-HT2B [4]): 72 ± 3% | EC50 (5-HT2C [5]): 60.1 nM | Emax (5-HT2C [5]): 69 ± 2% | Ki (5-HT2B [6]): 123 nM | Ki (5-HT2C [7]): 162 nM
